In patent US7439264B2, “Therapeutic compounds” (President and Fellows of Harvard College, priority 2002, dated 2008):
Values joined by “and” are separate entries in the source; they are usually repeats but may differ in a detail not shown here. Identical values can stand only once. “Also recorded” adds a separate entry of the source. Like-named read-outs stand apart in the source and are kept apart here.

What was measured:
[1] = target: T1, dopamine transporter (DAT) (UniProt Q9GJT6); experiment: Competition binding with [3H]WIN 35,428 at the dopamine transporter
T1 construct: Dopamine transporter IC50 (nM) [3H]WIN 35,428; other: unit not given
Experimental: (§1) The affinities (IC50) of the compounds for the dopamine and serotonin transporters were determined in competition studies using [3H]2β-carbomethoxy-3β-(4-fluorophenyl)-8-methyl-8-azabicyclo[3.2.1]octane ([^3H]WIN 35,428) to label the dopamine transporter and [^3H]citalopram to label the serotonin transporter. Competition studies were conducted with a fixed concentration of radioligand and a range of concentrations of the test compound. […] The cells were then exhaustively washed to remove non-covalently bound ligand and binding of cocaine (20 nM) and dopamine uptake (Vmax) were compared.

[2] = target: serotonin transporter (SERT) (UniProt A7KAX8); experiment: Competition binding with [3H]citalopram at the serotonin transporter
Experimental: as §1

[3] = target: T2, human dopamine transporter (Homo sapiens, UniProt Q01959); experiment: [3H]cocaine binding in hDAT HEK-293 cells after pre-incubation with compound and washing; conditions: for Inhibition of cocaine binding after 24 h (%): 24-h pre-incubation, cells extensively washed, [3H]cocaine 20 nM, HEK-293 hDAT; for irreversible binding to the DAT: 24 hour incubation, then washing
T2 construct: expressed in transfected cells; host or cells: HEK-293

[4] = target: T2, human dopamine transporter; experiment: [3H]dopamine uptake in hDAT HEK-293 cells after pre-incubation with compound and washing; type: cell-based; parameters: Inhibition of DA uptake after 24 h (%) / Inhibition of DA uptake: concentration or dose not given beside the values; conditions: for Inhibition of DA uptake after 24 h (%): 24-h pre-incubation, cells extensively washed, HEK-293 hDAT; for decrease of [3H]dopamine transport / [3H]Dopamine transport % of control: 24 hour pre-incubation
[5] = target: DAT (Macaca fascicularis, UniProt Q9GJT6); conditions: quoted for known ligands; cited from earlier work
[6] = Table 5, read-out: Dopamine transporter IC50 (nM) [3H]WIN 35,428
[7] = unit inferred, read-out: DAT (binding, Table 6)
[8] = Table 5, read-out: Serotonin transporter IC50 (nM) [3H]citalopram
[9] = unit inferred, read-out: SERT (binding, Table 6)
[10] = 24 hour pre-incubation, O-1893 (1 uM)
[11] = 24 hours, concentration not stated (n=4)
[12] = 24 hour pre-incubation with O-2153

T2 sequence (Q01959 whole entry): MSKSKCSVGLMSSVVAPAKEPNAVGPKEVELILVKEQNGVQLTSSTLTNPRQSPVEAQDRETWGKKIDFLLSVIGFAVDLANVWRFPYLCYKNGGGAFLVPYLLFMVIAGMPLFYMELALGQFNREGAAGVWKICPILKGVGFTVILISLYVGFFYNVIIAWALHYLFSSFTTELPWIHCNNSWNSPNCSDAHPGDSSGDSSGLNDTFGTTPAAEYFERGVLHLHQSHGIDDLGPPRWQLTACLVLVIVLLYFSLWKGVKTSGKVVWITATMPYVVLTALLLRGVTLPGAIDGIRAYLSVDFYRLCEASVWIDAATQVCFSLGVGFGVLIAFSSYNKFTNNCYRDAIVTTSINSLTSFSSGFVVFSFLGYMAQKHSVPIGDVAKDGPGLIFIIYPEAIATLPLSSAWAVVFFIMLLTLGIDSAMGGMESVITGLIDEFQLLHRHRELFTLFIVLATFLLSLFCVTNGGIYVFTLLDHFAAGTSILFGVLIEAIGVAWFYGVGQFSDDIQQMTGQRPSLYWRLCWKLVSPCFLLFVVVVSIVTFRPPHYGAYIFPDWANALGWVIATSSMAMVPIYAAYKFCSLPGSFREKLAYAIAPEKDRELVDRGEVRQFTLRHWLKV
DAT, sequence (Q9GJT6 whole entry): as the sequence (Q01959 whole entry) above, with V24M, I137V, P194S, S198G, D200N, S201G, S202P counted along it

O=C(CCC1CO1)OCC1C2CCC(CC1c1ccc(Cl)c(Cl)c1)O2 (racemic) [Compound O-1834, 3-Oxiranyl-propionic acid [3α-(3,4-dichlorophenyl)-8-oxabicyclo[3.2.1]oct-3β-yl]methyl ester]
IC50 [1, 6]: 17 nM | IC50 [1, 7]: 17 nM | IC50 [2, 8]: 292 nM | IC50 [2, 9]: 294 nM | Inhibition of cocaine binding after 24 h (%) [3]: 18% | Inhibition of Cocaine Binding ([3]; Table 6, incub time 24 h): 18% | Inhibition of DA uptake after 24 h (%) [4]: 68% | Inhibition of DA uptake ([4]; Table 6, incub time 24 h): 68%

COC(=O)C1C2CCC(CC1c1ccc(Cl)c(Cl)c1)O2 (stereo not drawn) [2β-carbomethoxy-3α-(3′,4′-dichlorophenyl)-8-oxabicyclo[3.2.1]octane]
IC50 [5]: 2.34 nM

COC(=O)[C@H]1[C@@H](OC(=O)c2ccccc2)C[C@@H]2CC[C@H]1N2C [(−)-Cocaine, cocaine, reference compound]
IC50 [1, 6]: 95 nM | IC50 [2, 8]: 270 nM

COCC(=O)OCCCN1C2CCC1C(C(=O)OC)C(c1ccc(F)cc1)C2 (stereo not drawn) [Compound O-1071, 2β-Carbomethoxy-3β-(4-fluorophenyl)-8-(3-methoxyacetoxypropyl)-8-azabicyclo[3 2.1]octane]
IC50 [1, 7]: 125 nM | IC50 [2, 9]: 3000 nM | Inhibition of Cocaine Binding ([3]; Table 6, incub time 24 h): 0% | Inhibition of DA uptake ([4]; Table 6, incub time 24 h): 0%

COC(=O)C1C(c2ccc(F)cc2)CC2CCC1N2CCOC(C)=O (stereo not drawn) [Compound O-1103, 2β-Carbomethoxy-3β-(4-fluorophenyl)-8-(2-acetoxyethyl)-8-azabicyclo[3.2.1]octane]
IC50 ([1]; read-out: DAT (binding, Table 6), unit inferred): 20 nM | IC50 ([2]; read-out: SERT (binding, Table 6), unit inferred): 200 nM | Inhibition of Cocaine Binding ([3]; Table 6, incub time 24 h): 0% | Inhibition of DA uptake ([4]; Table 6, incub time 24 h): 0%

COC(=O)C1C(c2ccc(F)cc2)CC2CCC1N2CCN1C(=O)C=CC1=O (stereo not drawn) [Compound O-1233, 2β-Carbomethoxy-3β-(4-fluorophenyl)-8-(2-maleimidoethyl)-8-azabicyclo[3.2.1]octane]
IC50 [1, 7]: 237 nM | IC50 [2, 9]: 3000 nM | Inhibition of Cocaine Binding ([3]; Table 6, incub time 1 h): 50%/1 h

CCN1C(=O)C=CC1=O [Compound O-1765]
Inhibition of Cocaine Binding ([3]; Table 6, incub time 24 h): 35% | Inhibition of DA uptake ([4]; Table 6, incub time 24 h): 35%

C=CCCC(=O)OCC1C2CCC(CC1c1ccc(Cl)c(Cl)c1)O2 (stereo not drawn) [Compound O-1893, pent-4-enoic acid-(3α-(3,4-dichlorophenyl)-8-oxabicyclo[3.2.1]oct-2β-yl)methyl ester]
IC50 [1, 6]: 20 nM | IC50 [2, 8]: 593 nM | Inhibition of cocaine binding after 24 h (%) [3]: 63% | [3H]cocaine binding % of control ([3]; 1 hour pre-incubation): 12 % of control and 10 % of control and 7 % of control | irreversible binding to the DAT [3]: no irreversible binding took place | decline of specific [3H]cocaine binding sites ([3]; 24 hour pre-incubation, higher concentration (5 uM, different cells)): 62% | Tot- NS (dpms) [3, 10]: 3,154 dpms and 3,853 dpms and 4,913 dpms and 6,331 dpms | [3H]cocaine binding % of control [3, 10]: 45 % of control and 43 % of control and 42 % of control and 49 % of control | reduction of [3H]cocaine binding (CDPM) [3, 11]: more than 50% | Inhibition of DA uptake after 24 h (%) [4]: 23% | Inhibition of DA uptake after 24 h (%) ([4]; listed as 3): much reduced; also recorded: no inhibition | Dopamine transport % of control ([4]; 1 hour pre-incubation): 29 % of control and 43 % of control and 27 % of control | decrease of [3H]dopamine transport ([4]; 1 uM): 5% | decrease of [3H]dopamine transport ([4]; higher concentration (5 uM, different cells)): 23% and 22% | [3H]Dopamine transport % of control ([4]; O-1893 (1 uM)): 91 % of control and 98 % of control and 95 % of control | [3H]Dopamine transport % of control ([4]; O-1893-2 (5 uM, different cells), 5 µM): 80 % of control and 72 % of control and 81 % of control and 90 % of control and 67 % of control | reduction of [3H]dopamine transport [4, 11]: reduced to a lesser extent | transporter affinity for dopamine ([4]; initially, within one hour of preincubation (n=3)): reduced

COC(=O)C1C(c2ccc(F)cc2)CC2CCC1N2CCOC(=O)CCC1CO1 (stereo not drawn) [Compound O-1899, 2β-Carbomethoxy-3β-(4-fluorophenyl)-8-[2-(3-oxiranylpropionyloxy)ethyl]-8-azabicyclo[3.2.1]octane]
IC50 [1, 7]: 53 nM | IC50 [2, 9]: 230 nM | Inhibition of Cocaine Binding ([3]; Table 6, incub time 24 h): 0% | Inhibition of Cocaine Binding ([3]; Table 6, incub time 48 h): 40% | Inhibition of DA uptake ([4]; Table 6, incub time 24 h): 0% | Inhibition of DA uptake ([4]; Table 6, incub time 48 h): 20%

CC(C)CC(=O)OCC1C2CCC(CC1c1ccc(Cl)c(Cl)c1)O2 (stereo not drawn) [Compound O-2059, 3-Methylbutanoic acid-[3α-(3,4-dichlorophenyl)-8-oxabicyclo[3.2.1]oct-2β-yl]methyl ester]
IC50 [1, 6]: 75 nM | IC50 [2, 8]: 515 nM | Inhibition of cocaine binding after 24 h (%) [3]: 60% | Inhibition of DA uptake after 24 h (%) [4]: 60%

CCCCC(=O)OCC1C2CCC(CC1c1ccc(Cl)c(Cl)c1)O2 (stereo not drawn) [Compound O-2102, Pentanoic acid-[3α-(3,4-dichlorophenyl)-8-oxabicyclo[3.2.1]oct-2β-yl]methyl ester]
IC50 [1, 6]: 71 nM | IC50 [2, 8]: 917 nM | Inhibition of cocaine binding after 24 h (%) [3]: 0% | Inhibition of DA uptake after 24 h (%) [4]: 0%

C=CCCCOCC1C2CCC(CC1c1ccc(Cl)c(Cl)c1)O2 (stereo not drawn) [Compound O-2153, 3α-(3,4-dichlorophenyl)-2β-pent-4-enyloxymethyl-8-oxabicyclo[3.2.1]octane]
IC50 [1, 6]: 58 nM | IC50 [2, 8]: 755 nM | Inhibition of cocaine binding after 24 h (%) [3]: 80% | irreversible binding to the DAT [3]: bound irreversibly | Tot- NS (dpms) (column head not given, as Table 3) [3, 12]: 12,216 and 6,792 | [3H]cocaine binding % of control (column head not given, as Table 3) [3, 12]: 28 and 18 | Inhibition of DA uptake after 24 h (%) [4]: 40% | [3H]Dopamine transport % of control (column head not given, as Table 3) [4, 12]: 51 and 54

C=CCOC(=O)C1C2CCC(CC1c1ccc(Cl)c(Cl)c1)O2 (centres unmarked) [Compound O-2227]
IC50 [1, 7]: 3 nM | IC50 [2, 9]: 32 nM | Inhibition of Cocaine Binding ([3]; Table 6, incub time 1 h): 0% | Inhibition of Cocaine Binding ([3]; Table 6, incub time 24 h): 55% | Inhibition of DA uptake ([4]; Table 6, incub time 1 h): 0% | Inhibition of DA uptake ([4]; Table 6, incub time 24 h): 40%

O=C(OCCN1C(=O)C=CC1=O)C1C(c2ccc(F)cc2)CC2CCC1N2CCN1C(=O)C=CC1=O (centres unmarked) [Compound O-2315]
IC50 [1, 7]: 2000 nM | IC50 [2, 9]: 14000 nM

O=C(OCCCN1C(=O)C=CC1=O)C1C(c2ccc(F)cc2)CC2CCC1N2CCN1C(=O)C=CC1=O (centres unmarked) [Compound O-2335]
IC50 [1, 7]: 300 nM | IC50 [2, 9]: 10000 nM

O=C(OCCCN1C(=O)C=CC1=O)C1C(c2ccc(F)cc2)CC2CCC1N2CCCN1C(=O)C=CC1=O (centres unmarked) [Compound O-2492]
IC50 [1, 7]: 237 nM | IC50 [2, 9]: 2000 nM

C=CCCC(=O)OCC1C(c2ccc(F)cc2)CC2CCC1N2C (centres unmarked) [Compound O-2517]
IC50 [1, 7]: 60 nM

C=CCCCOCC1C(c2ccc(F)cc2)CC2CCC1N2C (centres unmarked) [Compound O-2528]
IC50 [1, 7]: 41 nM

C=CCCNC(=O)C1C(c2ccc(F)cc2)CC2CCC1N2C (centres unmarked) [Compound O-2578]
IC50 [1, 7]: 800 nM

C=CCCNCC1C(c2ccc(F)cc2)CC2CCC1N2C (centres unmarked) [Compound O-2583]
IC50 [1, 7]: 500 nM

CCN1C(=O)C=CC1=O [N-Ethylmaleimide, N-ethylmaleimide, reference compound]
IC50 ([1]; read-out: Dopamine transporter IC50 (nM) [3H]WIN 35,428, Table 5): > 100000 nM | IC50 [2, 8]: > 100000 nM | Inhibition of cocaine binding after 24 h (%) [3]: 35% | irreversible binding to the DAT [3]: did manifest irreversible binding | Inhibition of DA uptake after 24 h (%) [4]: 35%

COC(=O)C1C(c2ccc(F)cc2)CC2CCC1N2C (stereo not drawn) [WIN 35,428, 2β-carbomethoxy-3β-(4-fluorophenyl)-8-methyl-8-azabicyclo[3.2.1]octane, reference compound]
IC50 [1, 6]: 11 nM | IC50 [2, 8]: 160 nM | irreversible binding to the DAT [3]: did not bind irreversibly | IC50 [5]: 11 nM
